Assay results taken from patent US20250353891A1 (MEDIMMUNE LIMITED, priority 2022, published 2025).
Read-outs that look alike come from different tables or passages of the source. Starred links: 1 amine or outer side, 2 acyl side, 3 side chain; linkers in the order of their positions; H or OH if unused. Non-standard residues stand in square brackets, D forms with d. Residues, ends and D or L forms follow the SMILES beside them. Groups on a side chain read outwards from the residue. *: point of attachment. C20 diacid = O=C(O)CCCCCCCCCCCCCCCCCCC(=O)*; C18 diacid = O=C(O)CCCCCCCCCCCCCCCCC(=O)*; γGlu = O=C(O)[C@H](CCC(=O)[*:2])N[*:1]; αMeF = C[C@](N)(Cc1ccccc1)C(=O)O; AEEA = NCCOCCOCC(=O)O; Aib = CC(C)(N)C(=O)O

Assays:
recombinant Neprilysin = biological target: T1, recombinant Neprilysin (Homo sapiens, UniProt P08473); experiment: Proteolytic resistance to neprilysin; format: in vitro ADME; conditions: pH 8.3; for remaining at 4 h / remaining at 24 h: isolated enzyme neprilysin
T1 construct: purchased R&D Systems 1182-ZNC-010
Protocol: 10.0 μg (˜10 units) recombinant Neprilysin (R&D Systems: 1182-ZNC-010) was reconstituted to 100 μL (100 μg/mL, ˜100 units/mL) in assay buffer (50 mM Tris, 50 mM NaCl, 50 mM NaHCO3, adjusted to pH 8.3) to give the enzyme stock solution. Peptide stock solutions were prepared to a concentration of ˜250 μM (˜1.0 mg/mL of 4 kDa peptide) in assay buffer. 100 μL (10 μg, ˜10 units) of neprilysin stock solution was added to 100 μL of peptide stock solution (1.0 mg/mL, ˜100 μg of peptide) and the mixture was co-incubated in a temperature regulated incubator at 37° C. for the duration of the experiment. 25 μL aliquots (˜ 12.5 μg initial peptide) of the peptide-enzyme mixture were periodically withdrawn (t=0, 30 mins, 1 h, 2 h, 4 h and 24 h) and quenched immediately by addition to an equal volume ([…]) of 10% TFA (v/v) in 1:1 water/acetonitrile to arrest proteolytic activity. The quenched aliquot centrifuged at 7800 rpm, and 30 μL of the supernatant was analyzed by analytical RP-HPLC as follows: Analytical RP-HPLC method: Agilent Polaris C8-A column (4.6×100 mm, 3 micron) eluted with a linear binary gradient of 10-90% MeCN (0.1% TFA v/v) in water (0.1% TFA v/v) over either 10 or 15 mins at 1.5 mL min-1 at 40° C. with detection by UV absorption at 210 nm. Manual integration (AUC) allowed estimation of remaining intact peptide over the time course of the experiment.

[1] = biological target: human GLP-1 receptor (hGLP-1R) (Homo sapiens, UniProt P43220); experiment: cAMP production (HTRF) in CHO cells expressing hGLP-1R; format: cell-based; set-up: expressed in transfected cells; conditions: for EC50: geometric mean, read-out: hGLP-1R EC50; for % Relative Potency Ratio: % GLP-1R activity relative to GLP-1 / % GlucR activity relative to glucagon
Method in brief: (§1)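 Cells were resuspended in assay buffer at batch-optimized density, typically 1×10^5 cells/mL for hGLP-1R and 2×10^5 cells/mL for hGCGR. After 30 min incubation at room temperature with compound, cAMP was measured by two-step HTRF. EC50 values came from 4-parameter logistic fits of % Delta F.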

[2] = Proteolytic resistance to FasSSGF containing porcine pancreatic pepsin; format: in vitro ADME; conditions: pig, simulated gastric fluid
Protocol: Stimulated Gastric Fluid (FasSSGF) Containing Porcine Pancreatic Pepsin Lyophilized porcine pancreatic pepsin (Sigma: P7012) was reconstituted to 0.5 mg/mL (˜2500 units/mL) in freshly prepared FasSSGF (Biorelevant media) to give the enzyme stock solution. Peptide stock solution was prepared to a concentration of 250 μM (˜1.0 mg/mL) in FasSSGF. 200 μL ([…], ˜250 units) of pepsin stock solution was added to 200 μL of peptide solution (1.0 mg/mL, ˜100 μg of peptide, ˜25 nmoles) and the mixture was co-incubated in a temperature-regulated incubator at 37° C. for the duration of the experiment. 30 μL aliquot of the peptide-enzyme mixture was periodically withdrawn (t=0, 5, 10, 15, and 30 min) and quenched immediately by addition of 80 μL of 0.1M ammonium bicarbonate solution in water/acetonitrile (4:1, pH 8) to arrest proteolytic activity. 30 μL aliquot was analyzed by analytical RP-HPLC. Analytical RP-HPLC method: Agilent Polaris C8-A column (4.6×100 mm, 3 micron) eluted with a linear binary gradient of 10-90% MeCN (0.1% TFA v/v) in water (0.1% TFA v/v) over either 10 or 15 mins at 1.5 mL min-1 at 40° C. with detection by UV absorption at 210 nm. Manual integration (AUC) allowed estimation of remaining intact peptide over the time course of the experiment.

[3] = biological target: human glucagon receptor (hGCGR) (Homo sapiens, UniProt P47871); experiment: cAMP production (HTRF) in CHO cells expressing hGCGR; format: cell-based; set-up: expressed in transfected cells; conditions: geometric mean, read-out: hGluc-R EC50
Method in brief: as §1

[4] = Table 7, peptides modified at position 20, cAMP in CHO hGLP-1R cells
[5] = Table 7, peptides modified at position 20, cAMP in CHO hGCGR cells

Sequence of human GLP-1 receptor (hGLP-1R) (P43220 24-463): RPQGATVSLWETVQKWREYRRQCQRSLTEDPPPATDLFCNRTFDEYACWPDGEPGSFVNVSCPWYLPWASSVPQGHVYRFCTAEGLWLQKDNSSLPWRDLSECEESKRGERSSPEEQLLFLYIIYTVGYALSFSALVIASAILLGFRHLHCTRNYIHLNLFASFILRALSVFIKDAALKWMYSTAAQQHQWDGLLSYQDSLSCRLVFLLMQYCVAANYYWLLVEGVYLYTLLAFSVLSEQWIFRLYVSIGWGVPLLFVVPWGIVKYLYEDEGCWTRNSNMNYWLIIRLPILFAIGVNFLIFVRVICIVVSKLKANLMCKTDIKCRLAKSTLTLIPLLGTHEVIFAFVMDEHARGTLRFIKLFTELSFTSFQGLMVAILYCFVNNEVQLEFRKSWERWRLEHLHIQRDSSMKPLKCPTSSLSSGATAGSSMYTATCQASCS
Sequence of human glucagon receptor (hGCGR) (P47871 26-477): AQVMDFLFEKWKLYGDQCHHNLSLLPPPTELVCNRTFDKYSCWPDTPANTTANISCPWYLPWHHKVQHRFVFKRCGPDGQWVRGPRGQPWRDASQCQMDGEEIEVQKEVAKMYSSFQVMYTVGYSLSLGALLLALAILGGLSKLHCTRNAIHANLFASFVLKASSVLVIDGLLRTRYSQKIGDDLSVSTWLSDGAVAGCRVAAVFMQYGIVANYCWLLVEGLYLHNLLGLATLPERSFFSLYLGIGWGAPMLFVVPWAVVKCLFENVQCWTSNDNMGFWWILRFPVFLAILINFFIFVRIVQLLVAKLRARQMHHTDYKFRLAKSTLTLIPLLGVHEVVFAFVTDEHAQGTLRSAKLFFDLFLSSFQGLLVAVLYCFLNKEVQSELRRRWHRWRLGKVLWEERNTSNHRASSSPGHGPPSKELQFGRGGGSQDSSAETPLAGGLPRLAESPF
T1 sequence (P08473 52-750 limits assumed): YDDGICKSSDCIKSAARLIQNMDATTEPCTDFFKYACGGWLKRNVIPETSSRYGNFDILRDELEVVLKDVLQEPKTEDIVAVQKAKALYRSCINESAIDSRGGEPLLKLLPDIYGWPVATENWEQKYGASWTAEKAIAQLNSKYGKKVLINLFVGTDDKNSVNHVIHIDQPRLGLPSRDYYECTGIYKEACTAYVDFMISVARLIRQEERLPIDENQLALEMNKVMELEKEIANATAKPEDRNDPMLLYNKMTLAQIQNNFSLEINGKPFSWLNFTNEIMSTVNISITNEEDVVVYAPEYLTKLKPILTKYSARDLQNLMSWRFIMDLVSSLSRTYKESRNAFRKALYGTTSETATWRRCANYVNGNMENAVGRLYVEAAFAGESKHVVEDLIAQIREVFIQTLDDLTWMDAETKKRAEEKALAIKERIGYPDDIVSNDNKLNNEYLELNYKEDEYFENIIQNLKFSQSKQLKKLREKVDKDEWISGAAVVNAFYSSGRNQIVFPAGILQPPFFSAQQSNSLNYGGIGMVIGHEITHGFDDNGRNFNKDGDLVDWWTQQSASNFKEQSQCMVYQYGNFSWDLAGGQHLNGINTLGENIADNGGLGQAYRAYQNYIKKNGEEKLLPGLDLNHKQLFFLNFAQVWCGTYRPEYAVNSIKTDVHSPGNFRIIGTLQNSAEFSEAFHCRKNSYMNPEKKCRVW

remaining at 4 h (recombinant Neprilysin) [%] | remaining at 24 h (recombinant Neprilysin) [%] | % intact peptide over time (recombinant Neprilysin) [%] | EC50 ([1]; Table 6, peptides modified at position 17, cAMP in CHO hGLP-1R cells) [pM] | % Relative Potency Ratio ([1]; Table 6) | remaining at 0.25 h, 125 µM [2] [%] | remaining at 0.5 h, 125 µM [2] [%] | EC50 ([3]; Table 6, peptides modified at position 17, cAMP in CHO hGCGR cells) [pM] | EC50 [1, 4] [pM] | % Relative Potency Ratio ([1]; Table 7) | EC50 [3, 5] [pM] | % Relative Potency Ratio [1] | EC50 ([1]; cAMP, CHO cells, 0.1% BSA) [pM] | EC50 ([3]; cAMP, CHO cells, 0.1% BSA) [pM] | SMILES
100 | 83 | 100 | 33.1 | 3.7 | 91 | 77 | 61.4 |  |  |  |  |  |  | CC[C@H](C)[C@H](NC(=O)C(C)(C)NC(=O)[C@H](CCC(=O)O)NC(=O)[C@@H](NC(=O)[C@](C)(Cc1ccccc1)NC(=O)[C@H](CC(=O)O)NC(=O)[C@H](CCCNC(=N)N)NC(=O)[C@H](C)NC(=O)[C@H](C)NC(=O)[C@H](CCCCNC(=O)COCCOCCNC(=O)COCCOCCNC(=O)CC[C@H](NC(=O)CCCCCCCCCCCCCCCCC(=O)O)C(=O)O)NC(=O)[C@H](CO)NC(=O)[C@H](CC(=O)O)NC(=O)[C@H](CC(C)C)NC(=O)[C@](C)(Cc1ccccc1)NC(=O)[C@H](CCCCN)NC(=O)[C@H](CO)NC(=O)[C@@H](NC(=O)[C@H](CC(=O)O)NC(=O)[C@H](CO)NC(=O)[C@@H](NC(=O)[C@](C)(Cc1ccccc1)NC(=O)[C@H](CO)NC(=O)CNC(=O)[C@H](Cc1c[nH]cn1)NC(=O)C(C)(C)NC(=O)[C@@H](N)Cc1c[nH]cn1)[C@@H](C)O)C(C)C)C(C)C)C(=O)N[C@@H](C)C(=O)N[C@@H](CC(N)=O)C(=O)N[C@H](C(N)=O)[C@@H](C)O [Peptide 15] (H-H[Aib]HGS[αMeF]TSDVSK[αMeF]LDSK([AEEA-AEEA-γGlu-C18 diacid])AARD[αMeF]VE[Aib]IANT-NH2; N-terminus assumed)
100 | 97 | 100 |  |  | 83 | 76 |  | 1230 | 1.8 | 1140 |  |  |  | CC[C@H](C)[C@H](NC(=O)C(C)(C)NC(=O)[C@H](CCC(N)=O)NC(=O)[C@@H](NC(=O)[C@](C)(Cc1ccccc1)NC(=O)[C@H](CC(=O)O)NC(=O)[C@H](CCCCNC(=O)COCCOCCNC(=O)COCCOCCNC(=O)CC[C@H](NC(=O)CC[C@H](NC(=O)CCCCCCCCCCCCCCCCCCC(=O)O)C(=O)O)C(=O)O)NC(=O)[C@H](C)NC(=O)[C@H](C)NC(=O)[C@H](CCCNC(=N)N)NC(=O)[C@H](CO)NC(=O)[C@H](CC(=O)O)NC(=O)[C@H](CC(C)C)NC(=O)[C@](C)(Cc1ccccc1)NC(=O)[C@H](CCCCN)NC(=O)[C@H](CO)NC(=O)[C@@H](NC(=O)[C@H](CC(=O)O)NC(=O)[C@H](CO)NC(=O)[C@@H](NC(=O)[C@H](Cc1ccccc1)NC(=O)[C@H](CO)NC(=O)CNC(=O)[C@H](Cc1c[nH]cn1)NC(=O)C(C)(C)NC(=O)[C@@H](N)Cc1c[nH]cn1)[C@@H](C)O)C(C)C)C(C)C)C(=O)N[C@@H](C)C(=O)N[C@@H](CC(N)=O)C(=O)N[C@H](C(N)=O)[C@@H](C)O [Peptide 282] (H-H[Aib]HGSFTSDVSK[αMeF]LDSRAAK([AEEA-AEEA-γGlu-γGlu-C20 diacid])D[αMeF]VQ[Aib]IANT-NH2)
81 | 63 | 100 |  |  | 68 | 48 |  | 129 | 8.4 | 552 |  |  |  | CC[C@H](C)[C@H](NC(=O)C(C)(C)NC(=O)[C@H](CCC(N)=O)NC(=O)[C@@H](NC(=O)[C@](C)(Cc1ccccc1)NC(=O)[C@H](CC(=O)O)NC(=O)[C@H](CCCCNC(=O)COCCOCCNC(=O)COCCOCCNC(=O)CC[C@H](NC(=O)CC[C@H](NC(=O)CCCCCCCCCCCCCCCCCCC(=O)O)C(=O)O)C(=O)O)NC(=O)[C@H](C)NC(=O)[C@H](C)NC(=O)[C@H](CCCNC(=N)N)NC(=O)[C@H](CO)NC(=O)[C@H](CC(=O)O)NC(=O)[C@H](CC(C)C)NC(=O)[C@H](Cc1ccc(O)cc1)NC(=O)[C@H](CCCCN)NC(=O)[C@H](CO)NC(=O)[C@@H](NC(=O)[C@H](CC(=O)O)NC(=O)[C@H](CO)NC(=O)[C@@H](NC(=O)[C@](C)(Cc1ccccc1)NC(=O)[C@H](CO)NC(=O)CNC(=O)[C@H](Cc1c[nH]cn1)NC(=O)C(C)(C)NC(=O)[C@@H](N)Cc1c[nH]cn1)[C@@H](C)O)C(C)C)C(C)C)C(=O)N[C@@H](C)C(=O)N[C@@H](CC(N)=O)C(=O)N[C@H](C(N)=O)[C@@H](C)O [Peptide 283] (H-H[Aib]HGS[αMeF]TSDVSKYLDSRAAK([AEEA-AEEA-γGlu-γGlu-C20 diacid])D[αMeF]VQ[Aib]IANT-NH2)
 |  | 100 |  |  | 0 | 0 |  |  |  |  |  |  |  | CC[C@H](C)[C@H](NC(=O)[C@H](Cc1c[nH]c2ccccc12)NC(=O)[C@H](CCC(N)=O)NC(=O)[C@@H](NC(=O)[C@H](Cc1ccccc1)NC(=O)[C@H](CC(=O)O)NC(=O)[C@H](CCCCNC(=O)COCCOCCNC(=O)COCCOCCNC(=O)CC[C@H](NC(=O)CC[C@H](NC(=O)CCCCCCCCCCCCCCCCCCC(=O)O)C(=O)O)C(=O)O)NC(=O)[C@H](C)NC(=O)[C@H](C)NC(=O)[C@H](CCCNC(=N)N)NC(=O)[C@H](CO)NC(=O)[C@H](CC(=O)O)NC(=O)[C@H](CC(C)C)NC(=O)[C@](C)(Cc1ccccc1)NC(=O)[C@H](CCCCN)NC(=O)[C@H](CO)NC(=O)[C@@H](NC(=O)[C@H](CC(=O)O)NC(=O)[C@H](CO)NC(=O)[C@@H](NC(=O)[C@H](Cc1ccccc1)NC(=O)[C@H](CO)NC(=O)CNC(=O)[C@H](Cc1c[nH]cn1)NC(=O)C(C)(C)NC(=O)[C@@H](N)Cc1c[nH]cn1)[C@@H](C)O)C(C)C)C(C)C)C(=O)N[C@@H](C)C(=O)N[C@@H](CC(N)=O)C(=O)N[C@H](C(N)=O)[C@@H](C)O [Peptide 290] (H-H[Aib]HGSFTSDVSK[αMeF]LDSRAAK([AEEA-AEEA-γGlu-γGlu-C20 diacid])DFVQWIANT-NH2)
 |  |  |  |  | 0 | 0 |  |  |  |  | 1.0 | 139 | 72.4 | CC[C@H](C)[C@H](NC(=O)[C@H](Cc1c[nH]c2ccccc12)NC(=O)[C@H](CCCCNC(=O)COCCOCCNC(=O)COCCOCCNC(=O)CC[C@H](NC(=O)CCCCCCCCCCCCCCCCCCC(=O)O)C(=O)O)NC(=O)[C@@H](NC(=O)[C@H](Cc1ccccc1)NC(=O)[C@H](CC(=O)O)NC(=O)[C@H](CCC(N)=O)NC(=O)[C@H](C)NC(=O)[C@H](C)NC(=O)[C@H](CCCNC(=N)N)NC(=O)[C@H](CO)NC(=O)[C@H](CC(=O)O)NC(=O)[C@H](CC(C)C)NC(=O)[C@](C)(Cc1ccccc1)NC(=O)[C@H](CCCCN)NC(=O)[C@H](CO)NC(=O)[C@@H](NC(=O)[C@H](CC(=O)O)NC(=O)[C@H](CO)NC(=O)[C@@H](NC(=O)[C@](C)(Cc1ccccc1)NC(=O)[C@H](CO)NC(=O)CNC(=O)[C@H](Cc1c[nH]cn1)NC(=O)C(C)(C)NC(=O)[C@@H](N)Cc1c[nH]cn1)[C@@H](C)O)C(C)C)C(C)C)C(=O)N[C@@H](C)C(=O)N[C@@H](CC(N)=O)C(=O)N[C@H](C(N)=O)[C@@H](C)O [Peptide 367] (H-H[Aib]HGS[αMeF]TSDVSK[αMeF]LDSRAAQDFVK([AEEA-AEEA-γGlu-C20 diacid])WIANT-NH2; N-terminus assumed)
